The source of these data is patent publication US11420922B2, “Hydroxylated tropolone inhibitors of nucleotidyl transferases in herpesvirus and Hepatitis B and uses therefor” (Saint Louis University, priority 2015, dated 2022).

Structures are written as SMILES.

A short description of data set [1]: Cytotoxicity reported with the HBV assay (Table 4). It counts as cell-based. The conditions noted are these: human, hepatoma cells; read-out: CC50 (HBV assay table). Summed up: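 Cells exposed 24 h to compounds at 0.78–100 μM in 1% DMSO, under the same conditions as the viral replication assays.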
The subject of data set [2] is TK-deficient mutant of HSV-2 strain 333, ΔTK-. In words: Replication of acyclovir-resistant TK-deficient HSV-2 mutant in Vero cells. In kind it is cell-based, herpes simplex virus 2. The conditions noted are these: 5 μM, 24 hr, FIG. 4. As for the experimental part:
FIGS. 4A & 4B. Sensitivity of thymidine kinase-deficient HSV-2 to αHT compounds. […] Duplicate cultures were collected 24 hours post-infection and infectious virus titers were determined by plaque assay. Titers in compound-treated samples were subtracted from DMSO-treated samples. Values are the averages±one standard error of the mean. α-Hydroxytropolones inhibit an ACV-resistant mutant of HSV-2. […] Log10 suppression was determined relative to the diluent control. Data are the averages of data from duplicate samples±ranges from one of two independent experiments at each concentration.
Vero cells were maintained in Dulbecco's modified Eagle's medium (DMEM) containing 3% newborn calf serum, 3% bovine growth serum, 2 mM L-glutamine and 100 IU/mL penicillin and 0.1 mg/mL streptomycin (P/S). HSV-1 #6 and HSV-2 #1 are de-identified clinical isolates from the Saint Louis University Hospital. Stocks were prepared after a single passage in cell culture and were titered by standard plaque assay (Knipe and Spang, 1982). Wild-type HSV-2 used in FIG. 3 was laboratory strain 333. The TK-deficient mutant of HSV-2 strain 333, ΔTK-, contains a 180-bp KpnI-KpnI deletion in the UL23 open reading frame that abrogates TK activity (McDermott, et al, 1984). ΔTK- was the generous gift of Jim Smiley. Virus stocks were grown and titered on Vero cells (Morrison and Knipe, 1996).
HSV TK-deficient mutants are therefore insensitive to ACV. […] Vero cells were infected with a laboratory strain of HSV-2 and an engineered TK-deficient mutant of the same strain.

Data set [3] in a line: Mouse liver microsome assay. It counts as in vitro ADME. The conditions noted are these: 1 μM in mouse liver microsomes. The essentials: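 Mouse liver microsomes at 0.25 μM P450 final in 0.1 M potassium phosphate with 3.3 mM MgCl and 1 μM compound, prewarmed 5 min at 37 °C. Reaction started with NADPH (1.2 mM final); aliquots at 0, 5, 10, 20 and 30 min quenched in cold acetonitrile with EDTA or EGTA, analysed by LC/MS/MS.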

With `Cc1cc(O)c(=O)c(O)cc1C(=O)c1ccc(-c2ccccc2)cc1` [Compound 118], the CC50 at 24 h in data set [1] came out at 21 µM. In addition, the “inhibition of the TK-mutant strain, in words” value in data set [2] is given as “efficiently inhibited”. In addition, in data set [3], the Non-P450 turn-over entry is on record as “Potential”. Besides, the half-life at 1 μM in data set [3] (read-out: t ½) stood at 34 min. Besides, the ER in data set [3] (extraction ratio) is reported as 0.63. The CLint scaled at 1 μM in data set [3] (mouse, liver microsomes) stood at 154 mL/min/kg. For the same compound, the predicted hepatic clearance at 1 μM in data set [3] (mouse, liver microsomes, read-out: CL ′hep) was 57 mL/min/kg.

As usually defined, the CC50 is the concentration at which the toxic effect on the cells reaches its halfway point. As usually defined, the CLint scaled is a measure of how fast metabolising enzymes remove a compound, apart from limits set by blood flow.
